How the values were obtained:
Type in all cases: biochemical
Human MMP14 = target: T1, Human MMP14 (Homo sapiens, UniProt P50281); test: MMP14 inhibition experiment; conditions: concentration required for 50% inhibition of enzyme activity; read-out: IC50 value MMP-14
T1 construct: purchased Biogenesis or Calbiochem 5980-1461 or 475935
Method in brief: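 Fluorescence assay: substrate Dnp-Pro-Cha-Gly-Cys(Me)-His-Ala-Lys(Nma)-NH2 (20 μM before equal-volume mixing) incubated at 37° C for 5 hours with 4 ng human MMP14.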

TACE = target: T2, TACE (Homo sapiens, UniProt P78536); test: TACE inhibition experiment (in vitro)
T2 construct: made in house; host or cells: mammalian cells or insect cells

Human MMP3 = target: T3, Human MMP3 (Homo sapiens, UniProt P08254); test: MMP3 inhibition experiment; conditions: concentration required for 50% inhibition of enzyme activity; read-out: IC50 value MMP-3
T3 construct: purchased Calbiochem 444217
Method in brief: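 Recombinant human MMP3 (5 ng) mixed with fluorogenic peptide NFF-3 (20 μM stock solution) and incubated 5 hours at 37° C; cleavage followed by fluorescence of the quenched substrate.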

Human MMP8 = target: T4, Human MMP8 (Homo sapiens, UniProt P22894); test: MMP8 inhibition experiment; conditions: concentration required for 50% inhibition of enzyme activity; read-out: IC50 value MMP-8
T4 construct: purchased Calbiochem 444229
Method in brief: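 Human MMP8 activated with APMA for 1 h at 37° C, then incubated with fluorogenic peptide MOCAc-Pro-Leu-Gly-Leu-A2pr(Dnp)-Ala-Arg-NH2 (20 μM stock) for 5 hours at 37° C. Fluorescent substrate cleavage serves as read-out.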

Human MMP2 = target: T5, Human MMP2 (Homo sapiens, UniProt P08253); test: MMP2 inhibition experiment; conditions: concentration required for 50% inhibition of enzyme activity; read-out: IC50 value MMP-2
T5 construct: purchased Calbiochem 444213
T5 sequence (P08253 110-660): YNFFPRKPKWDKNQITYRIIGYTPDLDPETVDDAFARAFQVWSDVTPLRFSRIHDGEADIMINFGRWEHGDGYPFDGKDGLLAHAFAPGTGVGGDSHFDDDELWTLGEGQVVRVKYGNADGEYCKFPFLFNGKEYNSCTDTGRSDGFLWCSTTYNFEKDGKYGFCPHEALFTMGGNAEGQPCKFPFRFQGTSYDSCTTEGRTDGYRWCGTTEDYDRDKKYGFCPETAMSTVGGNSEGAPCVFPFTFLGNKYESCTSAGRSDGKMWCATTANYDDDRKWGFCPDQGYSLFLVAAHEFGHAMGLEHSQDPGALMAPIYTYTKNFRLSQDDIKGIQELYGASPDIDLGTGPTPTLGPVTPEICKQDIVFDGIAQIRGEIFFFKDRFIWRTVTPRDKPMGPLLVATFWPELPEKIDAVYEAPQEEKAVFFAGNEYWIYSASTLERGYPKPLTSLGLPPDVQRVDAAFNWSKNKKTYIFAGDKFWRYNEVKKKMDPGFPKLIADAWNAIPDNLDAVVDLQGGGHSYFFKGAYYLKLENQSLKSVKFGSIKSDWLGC
Description: This enzyme solution in amount of 10 μL was diluted to 90 μL with the assay buffer A, which was added to 90 μL of 20 μM fluorescent substrate (MOCAc((7-methoxycoumarin-4-yl)acetyl)-Pro-Leu-Gly-Leu-A2pr(Dnp)-Ala-Arg-NH2, Peptide Institute, Inc., #3163-v) prepared in the assay buffer B, followed by reaction for 5 hours at 37° C.

Human MMP9 = target: T6, Human MMP9 (Homo sapiens, UniProt P14780); test: MMP9 inhibition experiment; conditions: read-out: IC50 value MMP-9
T6 construct: purchased Calbiochem 444231
Description: (§1) The methods of inhibition experiments carried out for various MMPs are described below.
This enzyme solution in amount of 1 μL was diluted to 90 μL with the assay buffer A, which was added to 90 μL of 20 μM fluorescent substrate (Dnp-Pro-Cha-Gly-Cys(Me)-His-Ala-Lys(Nma)-NH2) prepared in the assay buffer B, followed by reaction for 4 hours at 37° C.

Human MMP13 = target: T7, Human MMP13 (Homo sapiens, UniProt P45452); test: MMP13 inhibition experiment; conditions: concentration required for 50% inhibition of enzyme activity; read-out: IC50 value MMP-13
T7 construct: purchased Chemicon CC068
Description: Human MMP13 (Chemicon #CC068) in amount of 90 μL (200 ng) was activated by mixing with 10 μL of 10 mM APMA, followed by reaction for 1 hour at 37° C. This enzyme solution in amount of 0.6 μL was diluted to 90 μL with the assay buffer A, which was added to 90 μL of 20 μM fluorescent substrate (Dnp-Pro-Cha-Gly-Cys(Me)-His-Ala-Lys(Nma)-NH2) prepared in the assay buffer B, followed by reaction for 4 hours at 37° C.

Human MMP17 = target: T8, Human MMP17 (Homo sapiens, UniProt Q9ULZ9); test: MMP17 inhibition test; conditions: concentration required for 50% inhibition of enzyme activity; read-out: IC50 value MMP-17
T8 construct: purchased Calbiochem 475940
T8 sequence (Q9ULZ9 126-300 limits assumed): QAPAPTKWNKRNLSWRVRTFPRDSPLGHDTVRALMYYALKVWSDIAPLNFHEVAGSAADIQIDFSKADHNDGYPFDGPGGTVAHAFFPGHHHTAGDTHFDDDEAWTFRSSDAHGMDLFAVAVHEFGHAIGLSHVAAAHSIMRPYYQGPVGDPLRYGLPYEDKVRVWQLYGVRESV

Human MMP1 = target: T9, Human MMP1 (Homo sapiens, UniProt P03956); test: MMP1 inhibition experiment; conditions: read-out: IC50 value MMP-1
T9 construct: purchased Calbiochem 444208
T9 sequence (P03956 100-469): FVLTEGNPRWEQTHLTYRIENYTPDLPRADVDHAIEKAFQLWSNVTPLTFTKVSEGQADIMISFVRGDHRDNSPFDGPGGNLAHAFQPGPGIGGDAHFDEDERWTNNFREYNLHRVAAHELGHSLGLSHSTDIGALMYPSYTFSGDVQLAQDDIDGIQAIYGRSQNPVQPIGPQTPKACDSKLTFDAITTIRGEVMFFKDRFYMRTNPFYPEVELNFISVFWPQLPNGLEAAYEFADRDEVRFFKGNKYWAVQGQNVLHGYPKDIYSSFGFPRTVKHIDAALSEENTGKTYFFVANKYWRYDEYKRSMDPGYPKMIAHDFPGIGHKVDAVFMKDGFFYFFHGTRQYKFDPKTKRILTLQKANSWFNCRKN
Description: as §1
This enzyme solution in amount of 10 μL was diluted to 90 μL with the assay buffer A, which was added to 90 μL of 20 μM fluorescent substrate (Dnp-Pro-Cha(β-cyclohexylalanyl)-Gly-Cys(Me)-His-Ala-Lys(Nma)-NH2) prepared in the assay buffer B, followed by reaction for 5 hours at 37° C.

T6 sequence (P14780 107-707 limits assumed): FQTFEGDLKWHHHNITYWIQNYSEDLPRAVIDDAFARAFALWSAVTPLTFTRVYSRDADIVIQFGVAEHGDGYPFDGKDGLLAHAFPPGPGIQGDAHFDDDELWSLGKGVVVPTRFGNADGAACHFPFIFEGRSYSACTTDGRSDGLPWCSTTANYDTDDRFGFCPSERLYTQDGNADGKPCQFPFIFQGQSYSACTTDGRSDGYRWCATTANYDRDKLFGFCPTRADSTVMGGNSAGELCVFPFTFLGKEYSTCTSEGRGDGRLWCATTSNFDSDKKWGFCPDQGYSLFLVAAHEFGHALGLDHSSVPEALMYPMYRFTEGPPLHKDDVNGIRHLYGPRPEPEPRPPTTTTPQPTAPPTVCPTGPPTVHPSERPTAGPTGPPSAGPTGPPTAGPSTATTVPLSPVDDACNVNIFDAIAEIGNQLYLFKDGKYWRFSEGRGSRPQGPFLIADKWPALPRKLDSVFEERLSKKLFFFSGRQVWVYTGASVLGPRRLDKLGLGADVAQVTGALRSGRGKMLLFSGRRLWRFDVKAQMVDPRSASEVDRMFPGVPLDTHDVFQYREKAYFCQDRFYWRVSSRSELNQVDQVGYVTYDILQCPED
T2 sequence (P78536 215-824): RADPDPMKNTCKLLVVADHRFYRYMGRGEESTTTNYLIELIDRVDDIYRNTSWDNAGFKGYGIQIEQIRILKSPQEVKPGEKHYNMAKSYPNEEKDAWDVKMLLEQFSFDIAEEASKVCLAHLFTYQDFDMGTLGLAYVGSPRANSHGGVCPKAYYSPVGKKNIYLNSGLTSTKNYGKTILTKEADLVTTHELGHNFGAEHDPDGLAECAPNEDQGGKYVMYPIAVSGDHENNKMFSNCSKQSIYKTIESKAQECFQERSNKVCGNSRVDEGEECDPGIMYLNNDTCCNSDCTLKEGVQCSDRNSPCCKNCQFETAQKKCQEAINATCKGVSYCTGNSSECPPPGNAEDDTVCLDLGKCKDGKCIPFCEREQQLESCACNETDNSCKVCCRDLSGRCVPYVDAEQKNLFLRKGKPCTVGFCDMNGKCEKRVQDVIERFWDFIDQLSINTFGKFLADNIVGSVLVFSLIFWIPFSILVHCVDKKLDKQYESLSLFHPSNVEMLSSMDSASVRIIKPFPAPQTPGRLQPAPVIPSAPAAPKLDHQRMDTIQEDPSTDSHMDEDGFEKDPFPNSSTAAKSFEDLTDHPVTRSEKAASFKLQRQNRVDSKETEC
T4 sequence (P22894 101-467): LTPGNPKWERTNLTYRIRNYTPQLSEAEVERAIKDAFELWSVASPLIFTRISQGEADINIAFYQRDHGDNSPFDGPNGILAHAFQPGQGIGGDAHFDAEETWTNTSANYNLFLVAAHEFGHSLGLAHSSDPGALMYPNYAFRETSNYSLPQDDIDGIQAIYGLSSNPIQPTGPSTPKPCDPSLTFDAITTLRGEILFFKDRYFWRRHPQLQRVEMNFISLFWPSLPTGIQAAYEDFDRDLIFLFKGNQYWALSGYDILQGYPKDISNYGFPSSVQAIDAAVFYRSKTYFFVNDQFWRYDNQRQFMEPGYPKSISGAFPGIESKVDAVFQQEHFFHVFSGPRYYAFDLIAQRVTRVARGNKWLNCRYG
T3 sequence (P08254 100-272 limits assumed): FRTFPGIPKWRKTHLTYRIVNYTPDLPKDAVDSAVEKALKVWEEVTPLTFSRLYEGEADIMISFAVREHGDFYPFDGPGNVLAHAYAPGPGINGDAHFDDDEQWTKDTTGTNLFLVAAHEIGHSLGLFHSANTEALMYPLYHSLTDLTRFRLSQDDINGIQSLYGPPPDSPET

SMILES | IC50 (Human MMP14) | IC50 (TACE) | IC50 (Human MMP3) | IC50 (Human MMP8) | IC50 (Human MMP2) | IC50 (Human MMP9) | IC50 (Human MMP13) | IC50 (Human MMP17) | IC50 (Human MMP1)
Cc1cncc(C(CS(=O)(=O)c2ccc(OCc3cc(C)nc4c(F)cccc34)cc2)N(O)C=O)c1 (stereo not drawn) [Example I-150] | 58 µM | 0.0025 µM | 4 µM | 27 µM | 34 µM | > 100 µM | 18 µM | 2.4 µM | > 100 µM
Cc1cc(COc2ccc(S(=O)(=O)CC(C=C3CCN(C(=O)C(C)(C)C)CC3)N(O)C=O)cc2)c2ccccc2n1 (stereo not drawn) [Example I-25, N-{1-[1-(2,2-Dimethylpropionyl)piperidin-4-ylidenemethyl]-2-[4-(2-methylquinolin-4-ylmethoxy)benzenesulfonyl]ethyl}-N-hyroxyformamide] | 20 µM | 0.01 µM | 0.11 µM | 5 µM | 1.3 µM | 8 µM | 0.7 µM | 0.12 µM | 40 µM
O=CN(O)C(C=C1CCC(=NO)CC1)CS(=O)(=O)c1ccc(OCc2ccc3ccccc3n2)cc1 (stereo not drawn) [Example I-86] | 70 µM | 0.42 µM | 61 µM | > 100 µM | 5.8 µM | 70 µM | 22 µM | 31 µM | > 100 µM
Cc1cc(COc2ccc(S(=O)(=O)CC(C=C3CCN(C=O)CC3)N(O)C=O)cc2)c2ccccc2n1 (stereo not drawn) [Example I-43] | > 100 µM | 0.0031 µM | 11 µM | 52 µM | 50 µM | > 100 µM | 65 µM | 4.5 µM | > 100 µM
Cc1ccc(C(CS(=O)(=O)c2ccc(OCc3cc(C)nc4ccccc34)cc2)N(O)C=O)cn1 (stereo not drawn) [Example I-32] | 53 µM | 0.0025 µM | 2.7 µM | 22 µM | 18 µM | 44 µM | 9 µM | 1.5 µM | > 100 µM
Cc1cccc(CCC(CS(=O)(=O)c2ccc(OCc3cc(C)nc4ccccc34)cc2)N(O)C=O)n1 (stereo not drawn) [Example I-129] | 50 µM | 0.012 µM | 3.1 µM | 33 µM | 12 µM | > 100 µM | 17 µM | 3.4 µM | > 100 µM
COCc1cc(COc2ccc(S(=O)(=O)CC(CC3CCC(=NO)CC3)N(O)C=O)cc2)cc(C)n1 (stereo not drawn) [Example I-122] | > 100 µM | 0.2 µM | 21 µM | 14 µM | 9 µM | > 100 µM | 12 µM | 18 µM | > 100 µM
CCN1CCC(=CC(CS(=O)(=O)c2ccc(OCc3cc(C)nc4ccccc34)cc2)N(O)C=O)CC1 (stereo not drawn) [Example I-30] | > 100 µM | 0.012 µM | 24 µM | > 100 µM | 83 µM | > 100 µM | > 100 µM | 8 µM | > 100 µM
CCC(CC)CN1CCC(CC(CS(=O)(=O)c2ccc(OCc3cc(C)nc4ccccc34)cc2)N(O)C=O)CC1 (stereo not drawn) [Example I-71] | 70 µM | 0.02 µM | 0.4 µM | 10 µM | 0.78 µM | 38 µM | 1.4 µM | 0.06 µM | > 100 µM
COc1ccc(C(=O)N2CCN(CC(CS(=O)(=O)c3ccc(OCc4cc(C)nc5ccccc45)cc3)N(O)C=O)CC2)cc1 (stereo not drawn) [Example I-54] | 43 µM | 0.008 µM | 1.2 µM | 42 µM | 12 µM | 31 µM | 23 µM | 0.85 µM | 70 µM
CC(=O)N1CCC(C(CS(=O)(=O)c2ccc(OCc3cc(C)nc4ccccc34)cc2)N(O)C=O)CC1 (stereo not drawn) [Example I-73] | > 100 µM | 0.014 µM | 1.7 µM | 18 µM | 26 µM | > 100 µM | 50 µM | 0.66 µM | > 100 µM
Cc1cc(COc2ccc(S(=O)(=O)CC([C@H]3CSC(=O)N3C)N(O)C=O)cc2)c2ccccc2n1 (stereo partly drawn) [Example I-136] | 50 µM | 0.0065 µM | 2 µM | 13 µM | 26 µM | 50 µM | 26 µM | 0.62 µM | 48 µM
COc1ccc(CN2C(=O)SCC2C(CS(=O)(=O)c2ccc(OCc3cc(C)nc4ccccc34)cc2)N(O)C=O)cc1 (stereo not drawn) [Example I-59] | 60 µM | 0.01 µM | 5.6 µM | 58 µM | 80 µM | > 100 µM | 35 µM | 2.6 µM | 54 µM
Cc1cc(COc2ccc(S(=O)(=O)CC(CN3CCN(S(C)(=O)=O)CC3)N(O)C=O)cc2)c2ccccc2n1 (stereo not drawn) [Example I-52] | > 100 µM | 0.012 µM | 1 µM | 42 µM | 22 µM | > 100 µM | 40 µM | 1.6 µM | > 100 µM
Cc1cc(COc2ccc(S(=O)(=O)CC(C=C3CCN(C(=O)c4ccccc4)CC3)N(O)C=O)cc2)c2ccccc2n1 (stereo not drawn) [Example I-21] | 3.8 µM | 0.0022 µM | 0.05 µM | 2.65 µM | 0.63 µM | 9 µM | 0.6 µM | 0.045 µM | 35 µM
Cc1cc(COc2ccc(S(=O)(=O)CC(C=C3CCN(Cc4ccccc4)CC3)N(O)C=O)cc2)c2ccccc2n1 (stereo not drawn) [Example I-45] | 9 µM | 0.005 µM | 0.26 µM | 5 µM | 1 µM | 40 µM | 2 µM | 0.27 µM | 85 µM
CCC(CC)C(=O)N1CCC(CC(CS(=O)(=O)c2ccc(OCc3cc(C)nc4ccccc34)cc2)N(O)C=O)CC1 (stereo not drawn) [Example I-51] | 40 µM | 0.01 µM | 0.35 µM | 7.6 µM | 3.2 µM | 37 µM | 5.8 µM | 0.4 µM | 60 µM
Cc1cccc(C(CS(=O)(=O)c2ccc(OCc3cc(C)nc4ccc(F)cc34)cc2)N(O)C=O)n1 (stereo not drawn) [Example I-149] | 90 µM | 0.03 µM | 26 µM | > 100 µM | 95 µM | > 100 µM | 35 µM | 23 µM | > 100 µM
Cc1cccc(C(CS(=O)(=O)c2ccc(OCc3cc(C)nc4ccccc34)cc2)N(O)C=O)c1 (stereo not drawn) [Example I-22] | 42 µM | 0.0042 µM | 7.3 µM | 59.5 µM | 40 µM | 53 µM | 21 µM | 3.5 µM | 60 µM
